Measured values published in patent publication US20250108036A1, “COMPOSITIONS FOR REMOVING SENESCENT CELLS AND USES THEREOF” (LIFECEUTIX CO., LTD., priority 2021, published 2025).

Experiments:
HMGN1 [1] = experiment: HMGN1 ELISA in culture medium of foreskin cells (Examples 10, 11; Tables 62, 63, 64); type: cell-based, human; details: Homo sapiens, 30 μM test compound, doxorubicin-treated foreskin cells, DMSO = 100; read-out: HMGN1
[2] = open field test in obese mice given senescent cells killed by test compounds (Example 16, Table 72); type: in vivo, C57BL6J mice; details: obese mice administered senescent cells whose death was induced by the test compound
Description: (§1) To obtain preadipocytes, groin fat tissue was collected from an 8-week-old female C57BL6J mouse (purchased from KRIBB Laboratory Animal Resource Center). The fat tissue was cut into small pieces and treated with collagenase to decompose the fat tissue, then centrifuged to collect the stromal vascular fraction (SVF) containing preadipocytes. It was washed with a washing medium (HBSS, purchased from GenDEPOT; 3.5% Albumin Fraction V, purchased from GenDEPOT; 100 U/ml Penicillin & Streptomycin, purchased from Invitrogen), mixed again, and extracted by filtering through a 100 μm nylon mesh. The isolated preadipocytes were cultured in the designated medium (DMEM, purchased from GenDEPOT; 20% FBS, purchased from GenDEPOT; 100 U/ml Penicillin & Streptomycin, purchased from Invitrogen). In the same manner as Example 1, cells were treated with doxorubicin at a concentration of 250 nM for 24 hours and cultured for an additional 21 days to induce cell senescence. Cells were treated with doxorubicin at a concentration of 250 nM for 24 hours and cultured for an additional 21 days to induce cell senescence. By treating the test compounds in the same manner as in Example 13, it was confirmed using an optical microscope that the death of most senescent cells was induced. The killed preadipocytes were washed using PBS (purchased from Welgene) and then mixed with PBS at a concentration of 5×10^5 cells/200 μl. It was administered subcutaneously to 8-week-old female C57BL6J mice (purchased from KRIBB Laboratory Animal Resource Center). At 7 and 10 days after administration of the killed senescent cells, 2 million senescent preadipocytes were mixed in 200 μl of PBS and administered into the abdominal cavity of mice. After administration of killed senescent cells, obesity was induced in mice with a high-fat diet (DIO) for 8 weeks in the same manner as in Example 9-1. Afterwards, the mouse was sacrificed in the same manner as in Example 7-2, total RNA was extracted from the groin fat tissue, and qRT-PCR was performed and analyzed using the synthesized cDNA. […] The mRNA amount of p16, MMP3, and IL6 without administration of senescent cells whose death was induced by the test compounds was calculated as 100%, and the amount of p16, MMP3, and IL6 after administration of the senescent cells whose death was induced by the test compounds was compared with them. Furthermore, an open field test was performed to analyze aging-related frailty in mice using the same method as Example 7-7. […] The amount of activity evaluation without administration of senescent cells whose death was induced by the test compounds was calculated as 100% and compared it with the amount of activity evaluation after administration of senescent cells whose death was induced by the test compounds.

HMGN1 [3] = experiment: HMGN1 ELISA in culture medium of A549 cancer cells (Example 12, Table 66); type: cell-based, human; details: Homo sapiens, A549, doxorubicin-induced senescent A549 cells, test compound 30 μM, ELISA, DMSO = 100; read-out: HMGN1 (amount of HMGN1 secreted in the cell culture)
p16, MMP3, IL6 = p16, MMP3, IL6 mRNA qRT-PCR in groin fat of obese mice given senescent cells killed by test compounds (Example 16, Table 72); type: in vivo, C57BL6J mice; details: obese mice administered senescent cells whose death was induced by the test compound
Description: as §1, with “compounds. […]” for “compounds.”

[4] = tested on: foreskin cells in which senescence was induced by doxorubicin; experiment: CellTiter-Glo cell viability of doxorubicin-induced senescent foreskin cells (Examples 1-2, 10, 11, 13; Tables 4, 63, 65); type: cell-based, human; details: Homo sapiens, 72 h, doxorubicin-induced senescent foreskin cells, CellTiter-Glo, 0 μM = 100, read-out: Survival (%); for viability at 1.1 µM: 1.1 μM test compound; for viability at 10 µM: 10 μM test compound; for viability at 30 µM: 30 μM test compound; for viability at […]: […] test compound
Description: After 3 days, cell viability was measured using CellTiter-Glo Luminescent Cell Viability Assay (Promega) or light microscopy.

A549 = experiment: CellTiter-Glo cell viability of senescent A549 cancer cells (Example 12, Table 67); type: cell-based, human; details: Homo sapiens, A549, doxorubicin-induced senescent A549 cancer cells, CellTiter-Glo, read-out: Survival (%); for viability at 1.1 µM: 1.1 μM test compound; for viability at 10 µM: 10 μM test compound; for viability at 30 µM: 30 μM test compound
[5] = tested on: foreskin cells in which aging was induced by doxorubicin; experiment: cell viability of senescent foreskin cells with caspase inhibitor QVD-Oph (Example 10, Table 61); type: cell-based, human; details: QVD-Oph 20 μM alone; doxorubicin-senescent foreskin cells

Row | Structure (SMILES) | activity at 30 µM (HMGN1 [1]) [%] | Open Field Test Time in Center (%) [2] | activity at 30 µM (HMGN1 [3]) [%] | IL6 mRNA (%) (p16, MMP3, IL6) | MMP3 mRNA (%) (p16, MMP3, IL6) | p16 mRNA (%) (p16, MMP3, IL6) | viability at 1.1 µM [4] [%] | viability at 10 µM [4] [%] | viability at 30 µM [4] [%] | viability at […] [4] [%] | viability at 1.1 µM (A549) [%] | viability at 10 µM (A549) [%] | viability at 30 µM (A549) [%] | Survial (%) [5]
1 | CCC(C)SSc1ncc[nH]1 (stereo not drawn) [LX-307] | 258 | 159 (±9.9) % | 305 | 87.2 (±10.5) % | 76.7 (±7.7) % | 73.1 (±8.5) % | 101 | 14.5 | 3.5 | 85.6 | 101 | 72.5 | 7.6 | 
2 | C[C@H]1Cc2c([nH]c3ccccc23)[C@H](c2ccc(C(=O)N[C@]34CC5C[C@H](C[C@H](C5)C3)C4)cc2)N1C(=O)CCl [LX-411] | 300 | 163 (±9) % | 335 | 71.9 (±7.2) % | 92.7 (±8.1) % | 79.7 (±6.6) % | 0.2 |  |  |  | 1.8 |  |  | 
3 | COc1cc(OC)cc(O[C@H]2OC3O[C@@]4(C)CCC5[C@H](C)CCC([C@H]2C)[C@@]35OO4)c1 (stereo partly drawn) [LX-502] | 274 | 126 (±20.4) % | 321 | 83.3 (±5.1) % | 77.4 (±8)^ % | 81.7 (±7.8) % | 59.1 |  |  | 10.4 | 78.4 |  |  | 
4 | COCC1(CO)C(=O)C2CCN1CC2 (stereo not drawn) [LX-701, Eprenetapopt, reference compound] | 277 | 181.8 (±27.1) % | 297 | 68.2 (±14.3) % | 72.5 (±9.2) % | 81.9 (±6.8) % | 99.3 | 45.9 | 27.4 | 100 | 99.2 | 91 | 11.3 | 
5 | CCOc1ccccc1-n1c(CN2CCNCC2)nc2ccccc2c1=O [LX-1002] | 286 | 141.1 (±18.3) % | 296 | 74.4 (±8.5) % | 68.1 (±13.8) % | 77.4 (±8.6) % | 4.2 |  |  |  | 47.6 |  |  | 
6 | Fc1ccc(-n2cc(CCCCN3CCC4(CC3)OCc3ccccc34)c3ccccc32)cc1 [LX-1102, Siramesine, reference compound] | 271 | 146.2 (±17.1) % | 324 | 76.2 (±7.1) % | 95.4 (±9.6) % | 82.9 (±4.8) % | 94 | 3.1 |  | 13.9 | 99.5 | 17.7 |  | 
7 | CCc1ccc(C(=O)C(C)CN2CCCCC2)cc1 (stereo not drawn) [LX-1401, Eperisone, reference compound] | 296 | 166.7 (±14.8) % | 287 | 72.8 (±10.4) % | 75.1 (±9.4) % | 83.4 (±6.9) % | 96.4 | 10.2 | 9 | 88.1 | 99 | 49.9 | 22.8 | 
8 | C[C@@H]1CC[C@@]23C[C@H](O)C(=O)[C@@]2(O)[C@]1(C)[C@H](OC(=O)CCl)C[C@@H](C1=CCn2c(=O)n(-c4ccccc4)c(=O)n2C1)[C@@H]3C [LX-1801, (2S,3aS,4S,5R,7R,8S,8aS,11R)-7-(1,3-Dioxo-2-phenyl-2,3,5,8-tetrahydro-1H-[1,2,4]triazolo[1,2-a]pyridazin-6-yl)-2,3a-dihydroxy-4,8,11-trimethyl-3-oxooctahydro-1H-4,8a-propanoazulen-5-yl 2-Chloroacetate] | 291 | 173.4 (±18.6) % | 295 | 56.4 (±12.4) % | 67.8 (±13.1) % | 62.5 (±9.4) % | 8.7 |  |  |  | 60.6 | 25.1 |  | 
9 | CC1(C)CC[C@]2(NC(=O)C(C)(F)F)CC[C@]3(C)[C@H](C(=O)C=C4[C@@]5(C)C=C(C#N)C(=O)C(C)(C)[C@@H]5CC[C@]43C)[C@@H]2C1 [LX-2101, Omaveloxolone, reference compound] | 274 | 144.9 (±26.6) % | 297 | 75.9 (±6.7) % | 68.3 (±16.4) % | 73.8 (±9.7) % | 1.8 |  |  |  | 71.6 |  |  | 
10 | CC(C)[C@H](NC(=O)c1ccc2ccccc2n1)C(=O)N[C@@H](CC(=O)O)C(=O)COc1c(F)cccc1F [QVD] |  |  |  |  |  |  |  |  |  |  |  |  |  | 105.1 (±4.7) %
